Test results from publication PMC4503722, “Novel Phenotypic Outcomes Identified for a Public Collection of Approved Drugs from a Publicly Accessible Panel of Assays” (PLoS ONE, 2015).

Tests used:
INS-1E cells [1] = assay: cells; assay type: cell-based, rat; conditions: 5 mM glucose; for 5mMGluc_INS1E SecretionMod IC50/EC50: assay number 8
INS-1E cells [2] = assay type: cell-based, rat; conditions: assay number 9; 0.1 mM glucose
SNU-C1 = assay: cells; assay type: cell-based; conditions: basal
HCT116 = assay: cells; assay type: cell-based; conditions: basal
[3] = system: endothelial tube formation in co-cultures of ECFCs and ADSCs treated with VEGF; assay: cells; assay type: cell-based, human
HeLa cells = assay: cells; assay type: cell-based
hGSK3b = target: T1, hGSK3b (Homo sapiens, UniProt P49841); assay: Cerep LANCE kinase assay hGSK3b (S1 assay 34); assay type: biochemical
T1 construct: purchased Cerep (LANCE kinase assay platform, contract assay)

hFLT3 = target: T2, hFLT3 (Homo sapiens, UniProt P36888); assay: Cerep LANCE kinase assay hFLT3 (S1 assay 35); assay type: biochemical
T2 construct: purchased Cerep (LANCE kinase assay platform, contract assay)

STC-1 cell line = assay type: cell-based, mouse; conditions: concentration response
hJAK2 = target: T3, hJAK2 (Homo sapiens, UniProt O60674); assay: Cerep LANCE kinase assay hJAK2 (S1 assay 33); assay type: biochemical
T3 construct: purchased Cerep (LANCE kinase assay platform, contract assay)

RKO = assay: cells; assay type: cell-based; conditions: basal
SW480 = assay: cells; assay type: cell-based; conditions: basal
DLD-1 = assay: cells; assay type: cell-based; conditions: basal
[4] = system: ECFC/ADSC co-culture cell nuclei number
HT-29 = assay: cells; assay type: cell-based; conditions: basal
hKDR = target: T4, hKDR (Homo sapiens, UniProt P35968); assay: Cerep LANCE kinase assay hKDR (S1 assay 32); assay type: biochemical
T4 construct: purchased Cerep (LANCE kinase assay platform, contract assay)

NCI-H716 cells = assay: cells; assay type: cell-based, Human; conditions: concentration response
hp70S6K1 (RPS6KB1) = target: T5, hp70S6K1 (RPS6KB1) (Homo sapiens, UniProt P23443); assay: Cerep LANCE kinase assay hp70S6K1 (S1 assay 31); assay type: biochemical
T5 construct: purchased Cerep (LANCE kinase assay platform, contract assay)

[5] = system: alkaline phosphatase (ALP) activity in C2C12 cells; assay type: cell-based; conditions: concentration response
Colo320 = assay: cells; assay type: cell-based; conditions: basal
[6] = system: nuclear β-catenin in C2C12 cells; assay: cells; assay type: cell-based; conditions: concentration response
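For 5mMGluc INS1E SecretionMod IC50/EC50 in this document: secreted insulin quantified by homogeneous immunoassay.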
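For IC50/EC50, 5mMGluc INS1E SecretionMod (assay number 8) in this document: secreted insulin quantified by homogeneous immunoassay.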

T2 sequence (P36888 27-993): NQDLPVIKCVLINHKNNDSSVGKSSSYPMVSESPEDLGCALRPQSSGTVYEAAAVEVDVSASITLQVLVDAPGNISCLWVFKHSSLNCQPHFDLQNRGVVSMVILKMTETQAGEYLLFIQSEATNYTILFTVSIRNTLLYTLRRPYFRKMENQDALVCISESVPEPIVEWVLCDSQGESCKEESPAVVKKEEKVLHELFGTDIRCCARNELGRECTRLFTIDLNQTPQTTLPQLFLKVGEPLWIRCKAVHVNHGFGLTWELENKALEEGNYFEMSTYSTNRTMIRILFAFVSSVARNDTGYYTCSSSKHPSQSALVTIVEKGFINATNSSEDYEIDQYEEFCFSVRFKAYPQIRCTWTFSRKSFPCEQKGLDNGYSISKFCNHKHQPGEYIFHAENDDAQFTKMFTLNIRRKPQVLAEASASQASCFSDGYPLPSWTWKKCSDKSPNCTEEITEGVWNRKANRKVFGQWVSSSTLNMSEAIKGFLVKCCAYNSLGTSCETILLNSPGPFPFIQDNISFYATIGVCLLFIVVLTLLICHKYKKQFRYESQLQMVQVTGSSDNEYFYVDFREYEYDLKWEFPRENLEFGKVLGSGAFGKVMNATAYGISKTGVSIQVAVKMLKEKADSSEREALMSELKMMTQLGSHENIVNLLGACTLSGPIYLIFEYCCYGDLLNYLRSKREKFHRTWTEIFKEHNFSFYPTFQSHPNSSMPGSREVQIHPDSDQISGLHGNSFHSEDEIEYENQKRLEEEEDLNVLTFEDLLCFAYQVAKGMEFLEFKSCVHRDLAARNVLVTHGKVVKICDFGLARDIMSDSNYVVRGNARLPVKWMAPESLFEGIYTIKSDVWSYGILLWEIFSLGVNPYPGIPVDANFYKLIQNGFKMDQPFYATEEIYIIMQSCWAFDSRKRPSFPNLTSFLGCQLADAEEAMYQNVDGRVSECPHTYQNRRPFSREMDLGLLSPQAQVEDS
T5 sequence (P23443 whole entry): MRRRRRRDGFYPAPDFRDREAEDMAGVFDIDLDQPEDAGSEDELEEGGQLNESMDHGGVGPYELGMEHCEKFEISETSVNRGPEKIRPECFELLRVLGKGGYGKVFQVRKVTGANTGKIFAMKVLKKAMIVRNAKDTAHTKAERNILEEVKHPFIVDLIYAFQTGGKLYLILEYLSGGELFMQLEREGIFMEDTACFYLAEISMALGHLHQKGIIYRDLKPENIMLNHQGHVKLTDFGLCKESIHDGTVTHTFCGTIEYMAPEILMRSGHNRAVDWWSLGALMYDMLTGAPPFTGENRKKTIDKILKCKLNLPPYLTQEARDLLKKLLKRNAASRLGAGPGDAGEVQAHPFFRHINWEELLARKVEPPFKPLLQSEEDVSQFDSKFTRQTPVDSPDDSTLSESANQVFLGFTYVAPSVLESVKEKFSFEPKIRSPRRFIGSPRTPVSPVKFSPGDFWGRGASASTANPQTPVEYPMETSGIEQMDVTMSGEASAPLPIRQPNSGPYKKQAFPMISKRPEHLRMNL
T1 sequence (P49841 whole entry): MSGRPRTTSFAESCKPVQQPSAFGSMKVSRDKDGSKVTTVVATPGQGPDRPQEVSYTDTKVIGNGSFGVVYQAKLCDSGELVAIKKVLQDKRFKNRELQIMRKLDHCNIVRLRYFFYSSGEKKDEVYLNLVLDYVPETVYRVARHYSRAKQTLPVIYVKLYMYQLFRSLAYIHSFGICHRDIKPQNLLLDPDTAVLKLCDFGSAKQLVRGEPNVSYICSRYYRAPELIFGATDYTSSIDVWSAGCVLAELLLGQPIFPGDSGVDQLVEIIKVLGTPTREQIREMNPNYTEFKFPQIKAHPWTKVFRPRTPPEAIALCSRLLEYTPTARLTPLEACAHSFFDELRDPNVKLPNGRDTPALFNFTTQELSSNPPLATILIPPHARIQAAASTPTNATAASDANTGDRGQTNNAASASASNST
T3 sequence (O60674 whole entry): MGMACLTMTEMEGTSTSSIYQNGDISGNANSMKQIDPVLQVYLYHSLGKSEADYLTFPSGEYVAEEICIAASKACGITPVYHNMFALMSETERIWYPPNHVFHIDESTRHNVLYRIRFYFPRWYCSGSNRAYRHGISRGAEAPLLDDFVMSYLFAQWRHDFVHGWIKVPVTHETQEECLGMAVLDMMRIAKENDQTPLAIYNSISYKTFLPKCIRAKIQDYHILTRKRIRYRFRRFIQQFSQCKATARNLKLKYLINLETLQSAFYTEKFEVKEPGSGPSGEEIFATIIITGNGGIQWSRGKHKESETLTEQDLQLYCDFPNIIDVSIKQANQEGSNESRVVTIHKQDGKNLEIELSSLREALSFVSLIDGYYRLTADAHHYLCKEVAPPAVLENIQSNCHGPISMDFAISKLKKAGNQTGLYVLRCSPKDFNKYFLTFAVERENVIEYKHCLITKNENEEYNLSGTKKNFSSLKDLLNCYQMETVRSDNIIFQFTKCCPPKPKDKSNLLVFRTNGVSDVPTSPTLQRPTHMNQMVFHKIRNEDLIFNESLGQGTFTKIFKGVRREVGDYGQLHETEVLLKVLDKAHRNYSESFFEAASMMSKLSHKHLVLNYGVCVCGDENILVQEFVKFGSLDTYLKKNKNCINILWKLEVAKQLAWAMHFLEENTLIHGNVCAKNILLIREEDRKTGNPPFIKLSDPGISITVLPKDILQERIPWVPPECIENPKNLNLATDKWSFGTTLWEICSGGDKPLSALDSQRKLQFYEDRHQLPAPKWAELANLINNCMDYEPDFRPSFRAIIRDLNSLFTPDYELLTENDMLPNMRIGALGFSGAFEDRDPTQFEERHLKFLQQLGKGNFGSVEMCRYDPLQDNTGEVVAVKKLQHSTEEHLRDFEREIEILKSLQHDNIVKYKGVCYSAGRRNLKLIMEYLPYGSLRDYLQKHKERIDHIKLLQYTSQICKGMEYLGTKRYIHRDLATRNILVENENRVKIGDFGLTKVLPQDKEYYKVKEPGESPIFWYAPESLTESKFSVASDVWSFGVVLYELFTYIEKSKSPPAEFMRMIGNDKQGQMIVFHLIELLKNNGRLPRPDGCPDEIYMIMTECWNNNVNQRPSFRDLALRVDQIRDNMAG
T4 sequence (P35968 20-1356): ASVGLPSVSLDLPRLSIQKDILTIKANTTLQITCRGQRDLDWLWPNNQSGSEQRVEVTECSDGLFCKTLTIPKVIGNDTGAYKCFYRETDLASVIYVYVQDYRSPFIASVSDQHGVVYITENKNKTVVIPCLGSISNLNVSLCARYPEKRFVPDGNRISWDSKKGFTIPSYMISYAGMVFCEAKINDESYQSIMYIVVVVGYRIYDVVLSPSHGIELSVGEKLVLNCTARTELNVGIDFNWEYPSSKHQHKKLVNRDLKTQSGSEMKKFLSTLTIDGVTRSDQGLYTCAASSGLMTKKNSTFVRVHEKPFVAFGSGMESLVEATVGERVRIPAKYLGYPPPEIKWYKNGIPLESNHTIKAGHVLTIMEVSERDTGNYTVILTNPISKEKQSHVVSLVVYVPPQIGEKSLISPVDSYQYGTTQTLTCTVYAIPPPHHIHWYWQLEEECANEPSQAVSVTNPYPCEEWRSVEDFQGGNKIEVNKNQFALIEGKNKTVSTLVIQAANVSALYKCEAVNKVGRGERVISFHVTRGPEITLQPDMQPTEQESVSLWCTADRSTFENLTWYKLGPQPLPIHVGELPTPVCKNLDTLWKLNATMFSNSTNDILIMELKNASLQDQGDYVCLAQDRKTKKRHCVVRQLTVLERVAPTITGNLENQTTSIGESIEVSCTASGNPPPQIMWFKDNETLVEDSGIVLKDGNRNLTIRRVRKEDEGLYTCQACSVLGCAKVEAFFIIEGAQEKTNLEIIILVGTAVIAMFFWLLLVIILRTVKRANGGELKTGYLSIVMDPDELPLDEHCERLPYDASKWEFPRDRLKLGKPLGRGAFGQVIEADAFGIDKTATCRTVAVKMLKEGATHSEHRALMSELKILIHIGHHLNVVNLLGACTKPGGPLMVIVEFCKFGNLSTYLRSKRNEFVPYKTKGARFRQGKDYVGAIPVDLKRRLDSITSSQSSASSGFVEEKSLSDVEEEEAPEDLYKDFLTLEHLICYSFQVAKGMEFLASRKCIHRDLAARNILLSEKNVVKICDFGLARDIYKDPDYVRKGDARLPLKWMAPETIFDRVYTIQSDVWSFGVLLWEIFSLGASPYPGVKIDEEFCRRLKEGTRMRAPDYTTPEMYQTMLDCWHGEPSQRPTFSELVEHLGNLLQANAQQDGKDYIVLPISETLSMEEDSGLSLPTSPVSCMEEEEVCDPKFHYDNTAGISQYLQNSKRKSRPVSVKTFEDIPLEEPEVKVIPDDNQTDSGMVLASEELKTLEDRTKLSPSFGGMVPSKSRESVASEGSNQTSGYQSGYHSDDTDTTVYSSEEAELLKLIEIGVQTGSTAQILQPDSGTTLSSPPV

## Nc1c2c(nc3ccccc13)CCCC2 [NCGC00015054-12]
INS-1E cells [1]
  5mMGluc_INS1E SecretionMod IC50/EC50: 17.6112 µM
INS-1E cells [2]
  0.1mMGluc_INS1E SecretionMod Act IC50/EC50: > 33.33 µM

## CN(C)CC[C@@H](c1ccc(Br)cc1)c1ccccn1.O=C(O)/C=C\C(=O)O [NCGC00015146-11]
INS-1E cells [1]
  5mMGluc_INS1E SecretionMod IC50/EC50: 3.76 µM
INS-1E cells [2]
  0.1mMGluc_INS1E SecretionMod Act IC50/EC50: 6.368 µM

## c1cc(CN2CCCCC2)cc(OCCCNc2nc3ccccc3s2)c1 [NCGC00015957-06]
INS-1E cells [1]
  5mMGluc_INS1E SecretionMod IC50/EC50: > 11.11 µM
INS-1E cells [2]
  0.1mMGluc_INS1E SecretionMod Act IC50/EC50: > 33.33 µM

## NC(=NCCCCCCN=C(N)/N=C(\N)Nc1ccc(Cl)cc1)/N=C(\N)Nc1ccc(Cl)cc1 [NCGC00016246-09]
SNU-C1
  IC50/EC50, Basal_Viability ATP SNU-C1 (assay number 30): 0.4386 µM
HCT116
  IC50/EC50, Basal_Viability ATP HCT116 (assay number 25): 4.3853 µM
[3]
  IC50/EC50, VEGF_ADSC\ECFC Angio CD31 TubeArea (assay number 2): 1.3455 µM
HeLa cells; 2N
  IC50/EC50, Hela CellCycMod PI 2N (assay number 14): > 10 µM
HeLa cells; 4N
  IC50/EC50, Hela CellCycMod PI 4N (assay number 16): > 10 µM
HeLa cells; Cell Number
  IC50/EC50, Hela CellCycMod PI Cell Number (assay number 18): 6.7072 µM
HeLa cells; MI
  IC50/EC50, Hela CellCycMod PI MI (assay number 17): > 10 µM
hGSK3b
  IC50/EC50, hGSK3b LANCE (assay number 34): > 20 µM
hFLT3
  IC50/EC50, hFLT3 LANCE (assay number 35): > 20 µM
INS-1E cells [1]
  IC50/EC50, 5mMGluc_INS1E SecretionMod (assay number 8): 25.1792 µM
STC-1 cell line
  IC50/EC50, mSTC-1 GLP1 Secretion (assay number 13): 10.3287 µM
hJAK2
  IC50/EC50, hJAK2 LANCE (assay number 33): > 20 µM
RKO
  IC50/EC50, Basal_Viability ATP RKO (assay number 29): 4.5801 µM
SW480
  IC50/EC50, Basal_Viability ATP SW480 (assay number 24): 5.6664 µM
DLD-1
  IC50/EC50, Basal_Viability ATP DLD-1 (assay number 23): 2.8031 µM
[4]
  IC50/EC50, VEGF_ADSC\ECFC Angio Hoechst NucArea (assay number 3): > 10 µM
HT-29
  IC50/EC50, Basal_Viability ATP HT-29 (assay number 28): 3.7852 µM
hKDR
  IC50/EC50, hKDR LANCE (assay number 32): > 20 µM
NCI-H716 cells
  IC50/EC50, hNCI-H716 GLP1 Secretion (assay number 12): 26.2027 µM
hp70S6K1 (RPS6KB1)
  IC50/EC50, hp70S6K1 LANCE (assay number 31): > 20 µM
[5]
  IC50/EC50, WntCondMedia_Alk Phos C2C12 (assay number 6): > 20 µM
Colo320
  IC50/EC50, Basal_Viability ATP Colo 320 (assay number 27): 5.1631 µM
[6]
  IC50/EC50, WntCondMedia_bCatenin C2C12 (assay number 5): > 20 µM

## Cl.N[C@@H]1C[C@H]1c1ccccc1 [NCGC00016598-02]
INS-1E cells [1]
  5mMGluc_INS1E SecretionMod IC50/EC50: > 33.33 µM
INS-1E cells [2]
  0.1mMGluc_INS1E SecretionMod Act IC50/EC50: > 33.33 µM

## COc1cc(C(=O)OCCCN2CCCN(CCCOC(=O)c3cc(OC)c(OC)c(OC)c3)CC2)cc(OC)c1OC [NCGC00016747-07]
INS-1E cells [1]
  5mMGluc_INS1E SecretionMod IC50/EC50: 10.1571 µM
INS-1E cells [2]
  0.1mMGluc_INS1E SecretionMod Act IC50/EC50: 18.0188 µM

## CCOc1cc(CC(=O)N[C@@H](CC(C)C)c2ccccc2N2CCCCC2)ccc1C(=O)O [NCGC00016978-04]
INS-1E cells [1]
  5mMGluc_INS1E SecretionMod IC50/EC50: 0.02704 µM
INS-1E cells [2]
  0.1mMGluc_INS1E SecretionMod Act IC50/EC50: 0.1358 µM

## CN1CCc2cc(Cl)c(O)cc2[C@H]2c3ccccc3CC[C@@H]21 [NCGC00092362-02]
INS-1E cells [1]
  5mMGluc_INS1E SecretionMod IC50/EC50: 15.3649 µM
INS-1E cells [2]
  0.1mMGluc_INS1E SecretionMod Act IC50/EC50: > 33.33 µM

## CCN(CC)CCNC(C(=O)OCCC(C)C)c1ccccc1 (stereo not shown) [NCGC00164526-02]
INS-1E cells [1]
  5mMGluc_INS1E SecretionMod IC50/EC50: 24.7717 µM
INS-1E cells [2]
  0.1mMGluc_INS1E SecretionMod Act IC50/EC50: > 33.33 µM

## C#CCOC(C(=O)OCCN(C)C)(c1ccccc1)c1ccccc1 [NCGC00164558-02]
INS-1E cells [1]
  5mMGluc_INS1E SecretionMod IC50/EC50: 9.257 µM
INS-1E cells [2]
  0.1mMGluc_INS1E SecretionMod Act IC50/EC50: 9.666 µM

## Cl.NCC1CCC(C(=O)Oc2ccc(CCC(=O)O)cc2)CC1 (stereo not shown) [NCGC00164584-03]
INS-1E cells [1]
  5mMGluc_INS1E SecretionMod IC50/EC50: > 33.33 µM
INS-1E cells [2]
  0.1mMGluc_INS1E SecretionMod Act IC50/EC50: > 33.33 µM
